# Laboratory results from the Kinase Knowledgebase extract (Sharma et al. 2016).
# Target: MAPK14 (human) (UniProt Q16539)
# Experiment: Inhibition of MAPK14 Kinase Activity
# Sequence of MAPK14 (human) (Q16539 whole entry, looked up): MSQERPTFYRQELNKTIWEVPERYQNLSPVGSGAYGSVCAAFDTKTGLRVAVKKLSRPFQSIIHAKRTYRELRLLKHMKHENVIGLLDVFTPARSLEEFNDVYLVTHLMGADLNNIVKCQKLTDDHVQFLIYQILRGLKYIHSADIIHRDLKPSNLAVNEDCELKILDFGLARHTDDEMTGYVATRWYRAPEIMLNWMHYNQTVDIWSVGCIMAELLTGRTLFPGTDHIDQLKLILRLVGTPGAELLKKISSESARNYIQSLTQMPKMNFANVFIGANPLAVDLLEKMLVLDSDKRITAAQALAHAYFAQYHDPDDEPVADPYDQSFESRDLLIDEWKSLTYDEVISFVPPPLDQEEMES
row,IC50,Compound
1,5.2 nM,Cc1cscc1-c1cc(-c2cnc(NC(C)C)s2)cn2ccnc12
2,1780 nM,Cc1ccccc1-c1cc(-c2cnc(NCCN(C)C)s2)cn2ccnc12
3,3 nM,CC[C@@H](C)Nc1ncc(-c2cc(-c3cscc3C)c3nccn3c2)s1
4,33 nM,CC[C@@H](C)Nc1ncc(-c2cc(-c3ccccc3)c3nc(CC(=O)OC)cn3c2)s1
5,35.8 nM,Fc1ccc(-c2cc(-c3cnc(NC4CCOCC4)s3)cn3ccnc23)cc1
6,109 nM,Fc1ccccc1-c1nc(-c2cnc(NC3CCOCC3)s2)cn2ccnc12
7,581 nM,CC(C)Nc1ncc(-c2cc(-c3ccccc3)c3nncn3c2)s1
8,5.9 nM,CC[C@@H](C)Nc1ncc(-c2cc(-c3ccccc3Cl)c3nccn3c2)s1
9,669 nM,CC(C)Nc1ncc(-c2cc(-c3ccccc3C#N)c3nccn3c2)s1
10,924 nM,COC(=O)Cc1cn2cc(-c3cn[nH]c3)cc(-c3ccccc3)c2n1
11,630 nM,Cc1c(-c2cc(-c3ccccc3)c3nccn3c2)cnn1-c1ccccc1
12,3.4 nM,CC[C@@H](C)Nc1ncc(-c2cc(-c3ccccc3F)c3nccn3c2)s1
13,604 nM,CC(C)Nc1ncc(-c2cc(-c3ccc(F)c(Cl)c3)c3nncn3c2)s1
14,5 nM,CC[C@@H](C)Nc1ncc(-c2cc(-c3ccccc3C)c3nccn3c2)s1
15,15 nM,CC(C)Nc1ncc(-c2cc(-c3ccccc3Cl)c3nncn3c2)s1
16,38 nM,CC(C)Nc1cnc(-c2cc(-c3ccccc3)c3nc(CCO)cn3c2)s1

row,IC50,Compound
1,91 nM,CC(C)Nc1ncc(-c2cc(-c3cccc(F)c3)c3nncn3c2)s1
2,926 nM,CC(C)Nc1ncc(-c2cc(-c3cccc(C#N)c3)c3nccn3c2)s1
3,795 nM,CCOC(=O)c1ccccc1-c1cc(-c2cnc(NC(C)C)s2)cn2ccnc12
4,1540 nM,Cc1ccc(C)c(-c2cc(-c3cnc(NC(C)C)s3)cn3ccnc23)c1
5,5.7 nM,CC[C@@H](C)Nc1ncc(-c2cc(-c3ccc(F)cc3F)c3nccn3c2)s1
6,40 nM,CCOCC(C)Nc1ncc(-c2cn3ccnc3c(-c3ccccc3F)n2)s1 (configuration not stated)
7,13 nM,CC(C)Nc1ncc(-c2cc(-c3ccccc3F)c3nncn3c2)s1
8,39 nM,CC(C)C(C)Nc1ncc(-c2cc(-c3ccccc3Cl)c3nccn3c2)s1 (configuration not stated)
9,37 nM,CNC(=O)c1cn2cc(-c3cnc(NC(C)C)s3)cc(-c3ccccc3)c2n1
10,60 nM,CC(C)Nc1ncc(-c2cn3ccnc3c(-c3ccccc3)n2)s1
11,6 nM,CCOC(=O)c1cn2cc(-c3cnc(N[C@H](C)CC)s3)cc(-c3ccccc3F)c2n1
12,807 nM,CCC(CC)Nc1ncc(-c2cc(-c3cccc(C#N)c3)c3nccn3c2)s1
13,809 nM,CC[C@@H](C)Nc1ncc(-c2cn3ccnc3c(-c3ccccc3O)n2)s1
14,23 nM,CC[C@@H](C)Nc1ncc(-c2cn3ccnc3c(-c3ccccc3F)n2)s1
15,40 nM,CCCCNc1ncc(-c2cc(-c3ccccc3)c3nc(C(=O)OCC)cn3c2)s1
16,41.6 nM,CC(C)C(C)Nc1ncc(-c2cc(-c3ccccc3)c3nccn3c2)s1 (configuration not stated)
